BindingDB's records for doi:10.7270/Q2319T8T (The Scripps Research Institute Molecular Screening Center, 2007)
Where a name gives a salt, the structure may show the parent alone.

Molecular target: Steroidogenic factor 1 (Homo sapiens, UniProt Q13285)
Test: blockers of SF-1 LBD reporter transcription – cell-based, CHO-K1, Gal4-SF-1 LBD, luciferase luminescence, dose response (AID 600)
[1] = inactive by the depositor's call

Sequence of Steroidogenic factor 1 (Q13285 whole entry, the tested form may be a part): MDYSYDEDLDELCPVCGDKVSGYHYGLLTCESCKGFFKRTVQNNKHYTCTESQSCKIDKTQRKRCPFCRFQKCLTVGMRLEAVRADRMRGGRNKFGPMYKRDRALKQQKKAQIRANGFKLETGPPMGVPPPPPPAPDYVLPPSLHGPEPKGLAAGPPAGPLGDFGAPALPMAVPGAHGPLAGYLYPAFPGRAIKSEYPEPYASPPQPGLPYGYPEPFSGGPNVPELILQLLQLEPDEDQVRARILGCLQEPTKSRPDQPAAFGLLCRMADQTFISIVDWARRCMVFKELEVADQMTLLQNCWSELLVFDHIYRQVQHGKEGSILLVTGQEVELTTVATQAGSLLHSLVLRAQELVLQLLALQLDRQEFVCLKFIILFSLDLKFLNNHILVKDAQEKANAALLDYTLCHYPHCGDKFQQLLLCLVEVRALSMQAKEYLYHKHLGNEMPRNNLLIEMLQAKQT

Row | SMILES | IC50 [1] [µM] | IC50 [µM]
1 | Cc1ccc(-c2nc(-c3ccccn3)no2)cc1Cl [5-(3-chloranyl-4-methyl-phenyl)-3-pyridin-2-yl-1,2,4-oxadiazole] |  | > 1.22
2 | Cn1cc(C=Nn2cnc3scc(-c4ccc(Cl)cc4)c3c2=O)c2ccccc21 [5-(4-chlorophenyl)-3-[(1-methyl-3-indolyl)methylideneamino]-4-thieno[2,3-d]pyrimidinone] |  | 9.07
3 | Cc1ccc(-c2nc(-c3ccccn3)no2)cc1 [5-(4-methylphenyl)-3-(2-pyridinyl)-1,2,4-oxadiazole] |  | 1.25
4 | Cc1ccc(-c2nnc(Nc3ccccc3)o2)cc1 [5-(4-methylphenyl)-N-phenyl-1,3,4-oxadiazol-2-amine] |  | 5.17
5 | COc1cccc(CNC(=O)c2nnn(CC(=O)Nc3ccc(C)c(C)c3)c2N)c1 [5-amino-1-[2-(3,4-dimethylanilino)-2-keto-ethyl]-N-m-anisyl-triazole-4-carboxamide] |  | 8.72
6 | Oc1c(CN2CCN(c3ccccn3)CC2)cc(Cl)c2cccnc12 [5-chloranyl-7-[(4-pyridin-2-ylpiperazin-1-yl)methyl]quinolin-8-ol] |  | 7.6
7 | O=C(Nc1nc(-c2ccccn2)cs1)c1ccc(Cl)s1 [5-chloranyl-N-(4-pyridin-2-yl-1,3-thiazol-2-yl)thiophene-2-carboxamide] |  | > 3.67
8 | Cn1nc(C(C)(C)C)cc1C(=O)NCc1ccc(N2CCCC2=O)cc1 [5-tert-Butyl-2-methyl-2H-pyrazole-3-carboxylic acid 4-(2-oxo-pyrrolidin-1-yl)-benzylamide] |  | 9.05
9 | O=S1(=O)Nc2c(ccc3cccnc23)-c2ccccc21 [5H-quinolino[8,7-c][1,2]benzothiazine 6,6-dioxide] |  | 5.46
10 | C[C@@]1(CO)[C@H](O)CC[C@@]2(C)[C@H]1CC[C@H]1C[C@@H]3C[C@@]12CC[C@]3(O)CO [6,13-di(hydroxymethyl)-2,6-dimethyl-(1S,2S,5R,6R,7R,10S,12R,13R)-tetracyclo[10.3.1.01,10.02,7]hexadecane-5,13-diol (Aphidicolin)] |  | 0.55
11 | C[S+]([O-])c1nc(-c2ccc(Br)cc2)cc(-c2ccccc2)c1C#N (stereo unspecified) [6-(4-bromophenyl)-2-(methylsulfinyl)-4-phenylnicotinonitrile] |  | 5.24
12 | Cc1ccc(Nc2cc(C)nn2-c2nc(C)cc(O)n2)cc1 [6-methyl-2-[3-methyl-5-(4-methylanilino)pyrazol-1-yl]-1H-pyrimidin-4-one] |  | 4.32
13 | Cn1c(-c2ccccc2)cc2c3no[n+]([O-])c3ccc21 [6-methyl-3-oxidanidyl-7-phenyl-pyrrolo[2,3-g][2,1,3]benzoxadiazol-3-ium] | 15 | 
14 | COc1ccc(Cl)c(Cn2c(NCc3ccco3)nc3c2c(=O)n(C)c(=O)n3C)c1 [7-(2-chloro-5-methoxy-benzyl)-8-(2-furfurylamino)-1,3-dimethyl-xanthine] |  | > 99
15 | CCNc1nc2c(c(=O)n(C)c(=O)n2C)n1Cc1ccc(Cl)cc1 [7-(4-chlorobenzyl)-8-(ethylamino)-1,3-dimethyl-xanthine] |  | > 3.67
16 | COc1cccc(Cn2c(NCc3ccco3)nc3c2c(=O)n(C)c(=O)n3C)c1 [8-(2-furanylmethylamino)-7-[(3-methoxyphenyl)methyl]-1,3-dimethylpurine-2,6-dione] | 25.4 | 
17 | COc1cccc(N2CCN(c3ncnc4c3[nH]c3ccc(F)cc34)CC2C)c1 (stereo unspecified) [8-fluoranyl-4-[4-(3-methoxyphenyl)-3-methyl-piperazin-1-yl]-5H-pyrimido[5,4-b]indole] |  | 2.07
18 | O=C(OC1CCOC1=O)c1ccc(-c2nc3ccccc3s2)s1 (stereo unspecified) [(2-oxidanylideneoxolan-3-yl) 5-(1,3-benzothiazol-2-yl)thiophene-2-carboxylate] |  | 5.75
19 | CCCCOc1ccc(OC(=O)c2cccnc2)cc1 [(4-butoxyphenyl) pyridine-3-carboxylate] | 15.4 | 
20 | COc1ccccc1-c1nnc(Nc2nc3c(OC)cccc3s2)o1 [(4-methoxy-1,3-benzothiazol-2-yl)-[5-(2-methoxyphenyl)-1,3,4-oxadiazol-2-yl]amine] |  | 6.52
21 | CN=c1scc(C)n1N=Cc1ccc(O)cc1O [(4E)-4-[[(4-methyl-2-methylimino-1,3-thiazol-3-yl)amino]methylidene]-3-oxidanyl-cyclohexa-2,5-dien-1-one] |  | 15.2
22 | CCc1ccc2oc(-c3cc(N)ccc3O)nc2c1 [(6E)-4-amino-6-(5-ethyl-3H-1,3-benzoxazol-2-ylidene)-1-cyclohexa-2,4-dienone] |  | > 3.67

The next lines start with the values.

Row | IC50 [1] [µM] | IC50 [µM] | SMILES
23 | 10.8 |  | COc1ccc(-c2cc(C(=O)O)c(C)o2)cc1OC [5-(3,4-dimethoxyphenyl)-2-methyl-3-furancarboxylic acid]
24 |  | 4.83 | Fc1ccc(-c2nnc(NC3=NCCCCC3)o2)cc1 [5-(4-fluorophenyl)-N-(3,4,5,6-tetrahydro-2H-azepin-7-yl)-1,3,4-oxadiazol-2-amine]
25 |  | > 3.67 | Cc1ccc(-c2cc(C(=O)N3CCCC3)no2)cc1 [5-(4-methylphenyl)-3-(1-pyrrolidinylcarbonyl)isoxazole]
26 |  | 6.06 | Oc1c(CN2CCOCC2)cc(COCc2ccccc2)c2cccnc12 [5-(benzoxymethyl)-7-(morpholinomethyl)quinolin-8-ol]
27 | 27.1 |  | Oc1c(CN2CCCCC2)cc(COCc2ccccc2)c2cccnc12 [5-(benzoxymethyl)-7-(piperidinomethyl)quinolin-8-ol]
28 |  | 4.13 | COCc1cc(CN2CCCC2)c(O)c2ncccc12 [5-(methoxymethyl)-7-(1-pyrrolidinylmethyl)-8-quinolinol]
29 |  | 8.91 | Cc1cnc(C(=O)Nc2cccc3cccnc23)cn1 [5-Methyl-pyrazine-2-carboxylic acid quinolin-8-ylamide]
30 | 21.2 |  | FC(F)(F)c1ccc(N2CCN(c3cc(-c4ccccc4)nc4ncnn34)CC2)nc1 [5-Phenyl-7-[4-(5-trifluoromethyl-pyridin-2-yl)-piperazin-1-yl]-[1,2,4]triazolo[1,5-a]pyrimidine]
31 | 25.5 |  | CCOC(=O)c1oc2ccc(S(=O)(=O)Nc3ccc4c(c3)n(C)c(=O)n4C)cc2c1C [5-[(1,3-dimethyl-2-oxo-5-benzimidazolyl)sulfamoyl]-3-methyl-2-benzofurancarboxylic acid ethyl ester]
32 |  | > 3.67 | Oc1c(CN2CCCCC2)cc(Br)c2cccnc12 [5-bromanyl-7-(piperidin-1-ylmethyl)quinolin-8-ol]
33 |  | 0.108 | O=S(=O)(NCc1ccncc1)c1ccc(Br)s1 [5-bromanyl-N-(pyridin-4-ylmethyl)thiophene-2-sulfonamide]
34 |  | 5.75 | Cc1ccc(S(=O)(=O)Nc2cccc3ncccc23)s1 [5-methyl-N-quinolin-5-ylthiophene-2-sulfonamide]
35 |  | 5.34 | COC(=O)C1C(=CN2CCCc3ccccc32)NC(=O)NC1c1ccc(F)cc1 (stereo unspecified) [6-(3,4-dihydro-2H-quinolin-1-ylmethyl)-4-(4-fluorophenyl)-2-keto-3,4-dihydro-1H-pyrimidine-5-carboxylic acid methyl ester]
36 |  | 8.33 | Cc1cc(C)n(-c2nc(NC(C)C)nc(NC(C)C)n2)n1 [6-(3,5-Dimethyl-pyrazol-1-yl)-N,N'-diisopropyl-[1,3,5]triazine-2,4-diamine]
37 |  | > 0.407 | CCOc1ccc(C2=Nn3c(nnc3-c3ccccc3OC)SC2)cc1 [6-(4-ethoxyphenyl)-3-(2-methoxyphenyl)-7H-[1,2,4]triazolo[3,4-b][1,3,4]thiadiazine]
38 |  | 3.21 | CCc1ccc(-c2cn3nc(C)c(C)nc3n2)cc1 [6-(4-ethylphenyl)-2,3-dimethyl-imidazo[1,2-b][1,2,4]triazine]
39 | 12.6 |  | CN1Cc2cc(C(=O)c3cc(Cl)cc(CSc4ncccn4)c3O)cnc2NC1=O [6-[5-chloranyl-2-oxidanyl-3-(pyrimidin-2-ylsulfanylmethyl)phenyl]carbonyl-3-methyl-1,4-dihydropyrido[2,3-d]pyrimidin-2-one]
40 | 13.4 |  | CC(C)Cn1c(N)c(C(=O)CSc2ccc3c(c2)OCCO3)c(=O)n(C)c1=O [6-amino-5-[2-(2,3-dihydro-1,4-benzodioxin-6-ylsulfanyl)acetyl]-3-methyl-1-(2-methylpropyl)pyrimidine-2,4-dione]
41 |  | 1.96 | Cc1ccc2nc(-c3ccccc3)cn2c1 [6-methyl-2-phenyl-imidazo[1,2-a]pyridine;hydrobromide]
42 | 11.1 |  | c1csc(CCNc2ncnc3sc4c(c23)CCC4)c1 [7,8-dihydro-6H-cyclopenta[4,5]thieno[1,2-c]pyrimidin-1-yl-[2-(2-thienyl)ethyl]amine]
43 | 16.9 |  | Cn1c(=O)c2c(nc(NCc3ccco3)n2C/C=C/c2ccccc2)n(C)c1=O [7-[(E)-cinnamyl]-8-(2-furfurylamino)-1,3-dimethyl-xanthine]
44 |  | 9.03 | COc1ccc2[nH]c3nc(SC(C)C)nnc3c2c1 [8-methoxy-3-propan-2-ylsulfanyl-5H-[1,2,4]triazino[5,6-b]indole]
45 |  | 5.38 | Cc1nnc(SC(=O)N2c3ccccc3Sc3ccccc32)s1 [10-phenothiazinecarbothioic acid S-(5-methyl-1,3,4-thiadiazol-2-yl) ester]
46 | 12.3 |  | O=C1C(=CNc2ccc3c(c2)OCO3)CCc2ccccc21 [(2E)-2-[(1,3-benzodioxol-5-ylamino)methylene]tetralin-1-one]
47 |  | 4.48 | COc1cccc2sc(Nc3nc(-c4ccccn4)cs3)nc12 [(4-methoxy-1,3-benzothiazol-2-yl)-[4-(2-pyridyl)thiazol-2-yl]amine]
48 |  | 10.4 | COc1ccccc1-c1nnc2n1N=C(c1ccc(O)c(O)c1)CS2 [(4E)-4-[3-(2-methoxyphenyl)-5H-[1,2,4]triazolo[3,4-b][1,3,4]thiadiazin-6-ylidene]-2-oxidanyl-cyclohexa-2,5-dien-1-one]
49 | 15.1 |  | COc1ccc(CCNc2c(C)c(C)nc3ncnn23)cc1 [(5,6-Dimethyl-[1,2,4]triazolo[1,5-a]pyrimidin-7-yl)-[2-(4-methoxy-phenyl)-ethyl]-amine]
50 |  | 7.66 | CCN1C(=O)/C(=C2/Sc3ccc(OC)cc3N2C)S/C1=N\c1cccc(O)c1 [(5Z)-3-ethyl-2-(3-hydroxyphenyl)imino-5-(5-methoxy-3-methyl-1,3-benzothiazol-2-ylidene)-1,3-thiazolidin-4-one]
51 |  | > 11 | CCc1c(C)nc2ncnn2c1NCCc1ccc(OC)cc1 [(6-Ethyl-5-methyl-[1,2,4]triazolo[1,5-a]pyrimidin-7-yl)-[2-(4-methoxy-phenyl)-ethyl]-amine]
